Patent US11933794B2, “Method for determining factor Xa inhibitor dosage” (Good Biomarker Sciences B.V., priority 2017, dated 2024)

Experiments:
[1] = tested on: fibrin clot formation in blood plasma; assay: Clot growth rate assay (Thrombodynamics) in plasma samples with defined Factor VIII levels; type: biochemical, human; settings: for inhibition of clot growth rate: FIG. 1
Source text: (§1) The clot growth rate assay monitors over time fibrin clot development in a nonstirred thin layer of platelet-free plasma activated by immobilized tissue factor. For this, the Thrombodynamics Basic Kit can be used as an in vitro diagnostic kit used to perform measurements of spatiotemporal dynamics of fibrin clot formation in blood plasma samples. The kit consists of measurement cuvettes, activating inserts and reagents for samples treatment. The kit is obtainable from HemaCore intended for professional use in the laboratory on the Thrombodynamics Analyzer T-2. See, for further details, Soshitova et al. (Blood Coagul. Fibrinolysis, 2012 September; 23(6):498-507).
Five plasma samples were prepared containing 50%, 75%, 100%, 150%, or 200% Factor VIII, respectively. The samples were prepared using FVIII-deficient plasma, normal plasma from healthy subjects, and FVIII concentrate and Factor VIII levels were measured and confirmed by the one-stage clotting assay. Each of these five plasma samples was subdivided into five subsamples to which apixaban was added to a total concentration of 0 μM, 0.1 μM, 0.2 μM, 0.35 μM, or 0.5 μM in plasma, respectively. The 25 subsamples were subjected to a clot growth assay as described above, and the clot growth rate was measured at 2500 seconds after start of growth.
For each different Factor VIII concentration (i.e., 50%, 75%, 100%, 150% or 200%), five bars are shown representing subsamples to which apixaban was added to a different total concentration, i.e., 0 μM, 0.1 μM, 0.2 μM, 0.35 μM, or […], respectively.

[2] = tested on: clot growth in hemophilia plasma (deficient in Factor IX and Factor VIII); assay: Clot growth experiments comparing normal and hemophilia plasma; type: biochemical, human; settings: hemophilia plasmas; in contrast to what was found in normal plasma
Source text: For clot growth, this now appears the key mechanism. In contrast, in text books, activation of Factor VIII is indicated to be a thrombin action.
as §1

coagulation status = assay: Coagulation status of patients by routine coagulation test (activated partial thromboplastin time, APTT); type: in vivo, human
Method: Four subjects in need of […] are selected, including three patients with thrombosis, and one patient with coronary artery disease.
Coagulation status of patients 1-4 is determined by a routine coagulation test (activated partial thromboplastin time, APTT).

O=C(NC[C@H]1CN(c2ccc(N3CCOCC3=O)cc2)C(=O)O1)c1ccc(Cl)s1 [rivaroxaban]
effects in the clot growth rate assay compared with apixaban ([1]; FIG. 2): closely mimic the effects of apixaban
inhibition of clot growth [2]: did not inhibit clot growth

CN1CCc2nc(C(=O)N[C@@H]3C[C@@H](C(=O)N(C)C)CC[C@@H]3NC(=O)C(=O)Nc3ccc(Cl)cn3)sc2C1 [edoxaban]
coagulation status (APTT): risk of blood clotting or bleeding events (coagulation status; Patient 2 (thrombosis), Factor VIII 95% of standard plasma, 20 mg per day): increased risk of bleeding events

COc1ccc(-n2nc(C(N)=O)c3c2C(=O)N(c2ccc(N4CCCCC4=O)cc2)CC3)cc1 [apixaban]
inhibition of clot growth rate ([1]; Factor VIII level below 100%, lowest apixaban concentration (0.1 μM in plasma)): close to maximal inhibition
inhibition of clot growth rate ([1]; Factor VIII levels above 100%, 0.1 μM apixaban): not be very effective
inhibition of clot growth rate ([1]; Factor VIII levels above 100%, 0.35 μM apixaban in plasma): substantial inhibition
inhibition of clot growth [2]: did not inhibit clot growth
coagulation status (APTT): risk of blood clotting or bleeding events (coagulation status; Patient 1 (thrombosis), Factor VIII 80% of standard plasma, 5 mg per day): no increased risk of blood clotting or bleeding events
coagulation status (APTT): risk of blood clotting or bleeding events (coagulation status; Patient 4 (coronary artery disease), Factor VIII 240% of standard plasma, 5 mg per day): increased risk of blood clotting events
